Laboratory results published in patent US10105367B2, “Therapeutic thiophene-, furan-, and pyridine-fused azolopyrimidin-5-(6h)-ones” (Dart Neuroscience (Cayman) Ltd., priority 2012, dated 2018).
pIC50: −log10 of the molar value.

Molecular target: human PDE1B (Homo sapiens (Human), UniProt Q01064)
Assay: PDE1B inhibitory assay (IMAP TR-FRET)
Settings: PDE1B pIC50, negative log of half-maximal molar inhibitory concentration; 200 nM FAM-cAMP, Calmodulin, CaCl2

SMILES | pIC50
COc1ccc(Cn2c(=O)n3ncnc3c3cc(C(O)C(F)(F)F)cnc32)cc1 (stereo not drawn) [Example 271, 6-(4-Methoxybenzyl)-9-(2,2,2-trifluoro-1-hydroxyethyl)pyrido[3,2-e][1,2,4]triazolo[1,5-c]pyrimidin-5(6H)-one] | 6.00 to 7.00
COc1ccc(Cn2c(=O)n3ncnc3c3c(C)c(CN4C[C@@H](C)N[C@@H](C)C4)sc32)cc1 [Example 72] | 6.00 to 7.00
COc1ccc(Cn2c(=O)n3ncnc3c3c4c(sc32)CN(CC2CNCCO2)CC4)cc1 (stereo not drawn) [Example 180, 6-(4-Methoxybenzyl)-9-(morpholin-2-ylmethyl)-8,9,10,11-tetrahydropyrido[4′,3′:4,5]thieno[3,2-e][1,2,4]triazolo[1,5-c]pyrimidin-5(6H)-one] | 6.00 to 7.00
O=c1n(Cc2ccc(Cl)c(Cl)c2)c2sc3c(c2c2ncnn12)CCOC3 [Example 91] | 6.00 to 7.00
C[C@@H]1CN(Cc2cnc3c(c2)c2ncnn2c(=O)n3Cc2cccc(I)c2)C[C@H](C)O1 [Example 284] | 6.00 to 7.00
COc1ccc(Cn2c(=O)n3ncnc3c3cc(CN4CCN(S(C)(=O)=O)CC4)cnc32)cc1 [Example 252, 6-(4-methoxybenzyl)-9-((4-(methylsulfonyl)piperazin-1-yl)methyl)pyrido[3,2-e][1,2,4]triazolo[1,5-c]pyrimidin-5(6H)-one] | 6.00 to 7.00
COc1ccc(Cn2c(=O)n3ncnc3c3cc(CN4CCC(OC)CC4)cnc32)cc1 [Example 236] | 6.00 to 7.00
COc1ccc(Cn2c(=O)n3ncnc3c3cc(CN4CCOCC4)cnc32)cc1 [Example 205] | 6.00 to 7.00
COc1ccc(Cn2c(=O)n3ncnc3c3cc(CCNC(C)c4ccccc4)cnc32)cc1 (stereo not drawn) [Example 213] | 6.00 to 7.00
COc1ccc(Cn2c(=O)n3ncnc3c3cc(CN4C[C@@H](C)O[C@@H](C)C4)cnc32)c(F)c1F [Example 292] | 6.00 to 7.00
COc1ccc(Cn2c(=O)n3ncnc3c3ccc(CN(C)CC4CCOC4)nc32)cc1 (stereo not drawn) [Example 259] | 6.00 to 7.00
O=c1n(Cc2ccc(Cl)cc2)c2ncc(CN3CCOCC3)cc2c2ncnn12 [Example 208] | 6.00 to 7.00
COc1ccc(Cn2c(=O)n3ncnc3c3cc(CN4CCN(CC5CCOC5)CC4)cnc32)cc1 (stereo not drawn) [Example 251, 6-(4-Methoxybenzyl)-9-((4-((tetrahydrofuran-3-yl)methyl)piperazin-1-yl)methyl)pyrido[3,2-e][1,2,4]triazolo[1,5-c]pyrimidin-5(6H)-one] | 5.00 to 6.00
COc1ccc(Cn2c(=O)n3ncnc3c3cc(N4CCC(N(C)C)CC4)cnc32)cc1 [Example 199] | 6.00 to 7.00
COCCN(Cc1cnc2c(c1)c1ncnn1c(=O)n2Cc1ccc(OC)cc1)C(C)C [Example 239] | 6.00 to 7.00

Same assay, conditions: negative log of half-maximal molar inhibitory concentration; 200 nM FAM-cAMP, Calmodulin, CaCl2

SMILES | PDE1B pIC50
COc1ccc(Cn2c(=O)n3ncnc3c3c4c(sc32)CN(c2ccccn2)CC4)cc1 [Example 179, 6-(4-Methoxybenzyl)-9-(pyridin-2-yl)-8,9,10,11-tetrahydropyrido[4′,3′:4,5]thieno[3,2-e][1,2,4]triazolo[1,5-c]pyrimidin-5(6H)-one] | >7
COc1ccc(Cn2c(=O)n3ncnc3c3c(C)c(CN4CCN(S(C)(=O)=O)CC4)sc32)cc1 [Example 63] | >7
COc1ccc(Cn2c(=O)n3ncnc3c3c4c(sc32)CN(CC2CCOCC2)CC4(F)F)c(F)c1 [Example 156] | >7
COc1ccc(Cn2c(=O)n3ncnc3c3cc(CN4C[C@@H](C)O[C@@H](C)C4)cnc32)cc1 [Example 220] | >7
COc1ccc(Cn2c(=O)n3ncnc3c3cc(CN4CCN5C(=O)OCC5C4)cnc32)cc1 (stereo not drawn) [Example 246] | >7
COc1ccc(Cn2c(=O)n3ncnc3c3c4c(sc32)CN(C(=O)C2CCOC2)CC4)c(F)c1 (stereo not drawn) [Example 167] | >7
COc1ccc(Cn2c(=O)n3ncnc3c3c4c(sc32)CN(S(C)(=O)=O)CC4)cc1 [Example 162] | >7
COc1ccc(Cn2c(=O)n3ncnc3c3c4c(sc32)CN(CC2CC2)CC4)cc1 [Example 110] | >7
CC(C)CCc1cc2c(s1)n(Cc1ccc(-c3ccccc3)cc1)c(=O)n1ncnc21 [Example 21] | <5
